Measurements taken from PubChem BioAssay (NCI).
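All cell lines were grown in 96-well plates and treated with compound for 48 hours. At the GI50, growth is halved. TGI denotes the concentration required for complete inhibition of growth.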

Experiments:
Assay in all cases: NCI-60 cell line screen, 48 h
786-0 renal = system: 786-0 renal
A498 renal = system: A498 renal
A549 NSCLC = system: A549 NSCLC
ACHN renal = system: ACHN renal
BT-549 breast = system: BT-549 breast
CAKI-1 renal = system: CAKI-1 renal
COLO 205 colon = system: COLO 205 colon
DU-145 prostate = system: DU-145 prostate
EKVX NSCLC = system: EKVX NSCLC
HCC-2998 colon = system: HCC-2998 colon
HCT-116 colon = system: HCT-116 colon
HCT-15 colon = system: HCT-15 colon
HL-60(TB) leukemia = system: HL-60(TB) leukemia
HOP-62 NSCLC = system: HOP-62 NSCLC
HOP-92 NSCLC = system: HOP-92 NSCLC
HS 578T breast = system: HS 578T breast
HT29 colon = system: HT29 colon
K-562 leukemia = system: K-562 leukemia
KM12 colon = system: KM12 colon
LOX IMVI melanoma = system: LOX IMVI melanoma
M14 melanoma = system: M14 melanoma
MALME-3M melanoma = system: MALME-3M melanoma
MDA-MB-231 breast = system: MDA-MB-231 breast
MDA-MB-435 = system: MDA-MB-435
MOLT-4 leukemia = system: MOLT-4 leukemia
NCI-H226 lung = system: NCI-H226 lung
NCI-H23 lung = system: NCI-H23 lung
NCI-H460 lung = system: NCI-H460 lung
NCI-H522 lung = system: NCI-H522 lung
NCI/ADR-RES ovarian = system: NCI/ADR-RES ovarian
OVCAR-3 ovarian = system: OVCAR-3 ovarian
OVCAR-4 ovarian = system: OVCAR-4 ovarian
OVCAR-5 ovarian = system: OVCAR-5 ovarian
OVCAR-8 ovarian = system: OVCAR-8 ovarian
PC-3 prostate = system: PC-3 prostate
RXF 393 renal = system: RXF 393 renal
SF-268 CNS = system: SF-268 CNS
SF-295 CNS = system: SF-295 CNS
SF-539 CNS = system: SF-539 CNS
SK-MEL-2 melanoma = system: SK-MEL-2 melanoma
SK-MEL-28 melanoma = system: SK-MEL-28 melanoma
SK-MEL-5 melanoma = system: SK-MEL-5 melanoma
SK-OV-3 ovarian = system: SK-OV-3 ovarian
SN12C renal = system: SN12C renal
SNB-19 CNS = system: SNB-19 CNS
SNB-75 CNS = system: SNB-75 CNS
SR leukemia = system: SR leukemia
SW-620 colon = system: SW-620 colon
T-47D breast = system: T-47D breast
TK-10 renal = system: TK-10 renal
U251 CNS = system: U251 CNS
UACC-257 melanoma = system: UACC-257 melanoma
UACC-62 melanoma = system: UACC-62 melanoma
UO-31 renal = system: UO-31 renal

COc1cc(-c2ccc(=O)oc2C#Cc2ccccc2)cc(OC)c1OC
GI50 (786-0 renal): 32.6 µM | TGI (786-0 renal): > 100 µM | GI50 (A498 renal): 30.4 µM | TGI (A498 renal): 70.6 µM | GI50 (A549 NSCLC): 3.22 µM | TGI (A549 NSCLC): 91.1 µM | GI50 (ACHN renal): 14.8 µM | TGI (ACHN renal): 90.2 µM | GI50 (BT-549 breast): 19.2 µM | TGI (BT-549 breast): 63.4 µM | GI50 (CAKI-1 renal): 27.4 µM | TGI (CAKI-1 renal): > 100 µM | GI50 (COLO 205 colon): 34.1 µM | TGI (COLO 205 colon): > 100 µM | GI50 (DU-145 prostate): 28.3 µM | TGI (DU-145 prostate): > 100 µM | GI50 (EKVX NSCLC): 83.4 µM | TGI (EKVX NSCLC): > 100 µM | GI50 (HCC-2998 colon): > 100 µM | TGI (HCC-2998 colon): > 100 µM | GI50 (HCT-116 colon): 1.66 µM | TGI (HCT-116 colon): > 100 µM | GI50 (HCT-15 colon): 13.8 µM | TGI (HCT-15 colon): > 100 µM | GI50 (HL-60(TB) leukemia): 8.56 µM | TGI (HL-60(TB) leukemia): > 100 µM | GI50 (HOP-62 NSCLC): 19 µM | TGI (HOP-62 NSCLC): 66.8 µM | GI50 (HOP-92 NSCLC): 16.1 µM | TGI (HOP-92 NSCLC): 39.2 µM | GI50 (HS 578T breast): 6.02 µM | TGI (HS 578T breast): 48.4 µM | GI50 (HT29 colon): 16.6 µM | TGI (HT29 colon): > 100 µM | GI50 (K-562 leukemia): 86.1 µM | TGI (K-562 leukemia): > 100 µM | GI50 (KM12 colon): 34.6 µM | TGI (KM12 colon): > 100 µM | GI50 (LOX IMVI melanoma): 1.57 µM | TGI (LOX IMVI melanoma): > 100 µM | GI50 (M14 melanoma): 48.9 µM | TGI (M14 melanoma): > 100 µM | GI50 (MALME-3M melanoma): > 100 µM | TGI (MALME-3M melanoma): > 100 µM | GI50 (MDA-MB-231 breast): 12.4 µM | TGI (MDA-MB-231 breast): 35.8 µM | GI50 (MDA-MB-435): 14.6 µM | TGI (MDA-MB-435): > 100 µM | GI50 (MOLT-4 leukemia): 13.2 µM | TGI (MOLT-4 leukemia): > 100 µM | GI50 (NCI-H226 lung): 22.8 µM | TGI (NCI-H226 lung): > 100 µM | GI50 (NCI-H23 lung): 36.9 µM | TGI (NCI-H23 lung): > 100 µM | GI50 (NCI-H460 lung): > 100 µM | TGI (NCI-H460 lung): > 100 µM | GI50 (NCI-H522 lung): 44.5 µM | TGI (NCI-H522 lung): > 100 µM | GI50 (NCI/ADR-RES ovarian): > 100 µM | TGI (NCI/ADR-RES ovarian): > 100 µM | GI50 (OVCAR-3 ovarian): 36.4 µM | TGI (OVCAR-3 ovarian): > 100 µM | GI50 (OVCAR-4 ovarian): > 100 µM | TGI (OVCAR-4 ovarian): > 100 µM | GI50 (OVCAR-5 ovarian): > 100 µM | TGI (OVCAR-5 ovarian): > 100 µM | GI50 (OVCAR-8 ovarian): 52.5 µM | TGI (OVCAR-8 ovarian): > 100 µM | GI50 (PC-3 prostate): > 100 µM | TGI (PC-3 prostate): > 100 µM | GI50 (RXF 393 renal): 0.945 µM | TGI (RXF 393 renal): 19.9 µM | GI50 (SF-268 CNS): 12.7 µM | TGI (SF-268 CNS): > 100 µM | GI50 (SF-295 CNS): 11.2 µM | TGI (SF-295 CNS): 35.5 µM | GI50 (SF-539 CNS): 12.7 µM | TGI (SF-539 CNS): > 100 µM | GI50 (SK-MEL-2 melanoma): 23.2 µM | TGI (SK-MEL-2 melanoma): > 100 µM | GI50 (SK-MEL-28 melanoma): 26.7 µM | TGI (SK-MEL-28 melanoma): > 100 µM | GI50 (SK-MEL-5 melanoma): 3.49 µM | TGI (SK-MEL-5 melanoma): > 100 µM | GI50 (SK-OV-3 ovarian): 28.5 µM | TGI (SK-OV-3 ovarian): 92.9 µM | GI50 (SN12C renal): 15.9 µM | TGI (SN12C renal): > 100 µM | GI50 (SNB-19 CNS): 29.9 µM | TGI (SNB-19 CNS): 93.3 µM | GI50 (SNB-75 CNS): 12.1 µM | TGI (SNB-75 CNS): 32.6 µM | GI50 (SR leukemia): 2.4 µM | TGI (SR leukemia): > 100 µM | GI50 (SW-620 colon): 13.3 µM | TGI (SW-620 colon): > 100 µM | GI50 (T-47D breast): 45.2 µM | TGI (T-47D breast): > 100 µM | GI50 (TK-10 renal): 29 µM | TGI (TK-10 renal): > 100 µM | GI50 (U251 CNS): 8.09 µM | TGI (U251 CNS): 34.4 µM | GI50 (UACC-257 melanoma): 56.7 µM | TGI (UACC-257 melanoma): > 100 µM | GI50 (UACC-62 melanoma): 11.6 µM | TGI (UACC-62 melanoma): > 100 µM | GI50 (UO-31 renal): 9.1 µM | TGI (UO-31 renal): > 100 µM
